In ChEMBL document CHEMBL4270670 (J Med Chem, 2018):
pEC50: −log10 of the molar value.

Key:
in vitro [1] = conditions: chicken, chicken embryo fibroblasts
Influenza A virus [2] = assay: Antiviral activity against Influenza A virus H5N2 infected in specific pathogen free embryonated egg assessed as survival rate at 10 mM preincubated for 1 hr prior to inoculation measured after 48 hrs (reference value: 0%); type: functional
in vitro [3] = conditions: human, plasma
in vitro [4] = conditions: human, plasma; remark: listed apart in the source
Rattus norvegicus [5] = assay: Half life in Sprague-Dawley rat at 2 mg/kg, iv by LC-MS analysis; type: ADME, organism-based; conditions: in vivo
Influenza A virus [6] = assay: Antiviral activity against Influenza A virus H5N2 infected in specific pathogen free embryonated egg assessed as survival rate at 0.039 mM preincubated for 1 hr prior to inoculation measured after 72 hrs (reference value: 0%); type: functional
Rattus norvegicus [7] = assay: Clearance in Sprague-Dawley rat at 2 mg/kg, iv by LC-MS analysis; type: ADME, organism-based; conditions: in vivo
in vitro [8] = conditions: dog, MDCK cells
Rattus norvegicus [9] = assay: Bioavailability in Sprague-Dawley rat at 2 mg/kg, iv by LC-MS analysis; type: ADME, organism-based; conditions: in vivo
Influenza A virus [10] = assay: Antiviral activity against Influenza A virus H5N2 infected in specific pathogen free embryonated egg assessed as survival rate at 10 mM preincubated for 1 hr prior to inoculation measured after 72 hrs (reference value: 0%); type: functional
in vitro [11] = conditions: human, liver microsomes
Influenza A virus [12] = assay: Antiviral activity against Influenza A virus H5N2 infected in specific pathogen free embryonated egg assessed as survival rate at 0.625 mM preincubated for 1 hr prior to inoculation measured after 72 hrs (reference value: 0%); type: functional
Mus musculus [13] = assay: Acute toxicity in Kunming mouse at 2000 mg/kg, ig after 1 week; type: organism-based; conditions: in vivo, po, 168 h
Rattus norvegicus [14] = assay: Cmax in Sprague-Dawley rat at 20 mg/kg, po by LC-MS analysis; type: ADME, organism-based; set-up: dose 20 mg/kg, route oral; conditions: in vivo
[15] = MRT (0 to infinity) in Sprague-Dawley rat at 20 mg/kg, po by LC-MS analysis; type: ADME, organism-based; conditions: in vivo
in vitro [16] = conditions: human, plasma; remark: listed apart in the source
Rattus norvegicus [17] = organism: Rattus norvegicus; conditions: in vivo, iv, 2 mg/kg
Rattus norvegicus [18] = organism: Rattus norvegicus; conditions: in vivo, po, 20 mg/kg
Influenza A virus [19] = assay: Antiviral activity against Influenza A virus H5N2 infected in specific pathogen free embryonated egg assessed as survival rate at 0.625 mM preincubated for 1 hr prior to inoculation measured after 48 hrs (reference value: 0%); type: functional
Influenza A virus [20] = assay: Antiviral activity against Influenza A virus H5N2 infected in specific pathogen free embryonated egg assessed as survival rate at 0.039 mM preincubated for 1 hr prior to inoculation measured after 48 hrs (reference value: 0%); type: functional
[21] = MRT (0 to infinity) in Sprague-Dawley rat at 2 mg/kg, iv by LC-MS analysis; type: ADME, organism-based; conditions: in vivo
Mus musculus [22] = assay: Acute toxicity in Kunming mouse assessed as gross lesions at 2000 mg/kg, ig after 1 week; type: organism-based; conditions: in vivo, po, 168 h
Influenza A virus [23] = assay: Antiviral activity against Influenza A virus H5N2 infected in specific pathogen free embryonated egg assessed as survival rate at 0.156 mM preincubated for 1 hr prior to inoculation measured after 72 hrs (reference value: 0%); type: functional
Rattus norvegicus [24] = assay: Half life in Sprague-Dawley rat at 20 mg/kg, po by LC-MS analysis; type: ADME, organism-based; conditions: in vivo
Rattus norvegicus [25] = assay: Tmax in Sprague-Dawley rat at 2 mg/kg, iv by LC-MS analysis; type: ADME, organism-based; conditions: in vivo
Influenza A virus [26] = assay: Antiviral activity against Influenza A virus H5N2 infected in specific pathogen free embryonated egg assessed as survival rate at 0.156 mM preincubated for 1 hr prior to inoculation measured after 48 hrs (reference value: 0%); type: functional
Rattus norvegicus [27] = assay: Volume of distribution in Sprague-Dawley rat at 2 mg/kg, iv by LC-MS analysis; type: ADME, organism-based; conditions: in vivo
Influenza A virus [28] = assay: microbe, parasite or virus in culture; conditions: A/Puerto Rico/8/1934(H1N1), MDCK, 48 h
in vitro [29] = conditions: human, liver microsomes; remark: listed apart in the source
in vivo [30] = conditions: Sprague-Dawley, rat, po, 20 mg/kg
in vivo [31] = conditions: Sprague-Dawley, rat, iv, 2 mg/kg
in vitro [32] = conditions: human, liver microsomes; remark: listed apart in the source
Influenza B virus = conditions: mdck
in vitro [33] = conditions: human, plasma; remark: listed apart in the source
in vitro [34] = conditions: human, plasma; remark: listed apart in the source
[35] = Oral bioavailability in Sprague-Dawley rat at 20 mg/kg by LC-MS analysis; type: ADME, organism-based; conditions: in vivo
Influenza A virus [36] = assay: microbe, parasite or virus in culture; conditions: MDCK, 48 h
Influenza A virus [37] = assay: Antiviral activity against Influenza A virus H5N2 infected in specific pathogen free embryonated egg assessed as survival rate at 2.5 mM preincubated for 1 hr prior to inoculation measured after 72 hrs (reference value: 0%); type: functional
Influenza A virus [38] = assay: Antiviral activity against Influenza A virus H5N2 infected in specific pathogen free embryonated egg assessed as survival rate at 2.5 mM preincubated for 1 hr prior to inoculation measured after 48 hrs (reference value: 0%); type: functional
in vitro [39] = conditions: human, liver microsomes; remark: listed apart in the source
Rattus norvegicus [40] = assay: Tmax in Sprague-Dawley rat at 20 mg/kg, po by LC-MS analysis; type: ADME, organism-based; conditions: in vivo
[41] = human, microsomes, 20 min

CCC(CC)O[C@@H]1C=C(C(=O)O)C[C@H](NCc2ccc(-c3csc4ccccc34)cc2)[C@H]1NC(C)=O
CC50 at 48 h (in vitro [1]): > 200 µM

CCC(CC)O[C@@H]1C=C(C(=O)O)C[C@H](NCc2ccc(SC(C)CC)cc2)[C@H]1NC(C)=O (stereo partly specified)
CC50 at 48 h (in vitro [1]): > 200 µM

CCC(CC)Oc1cccc(CN[C@H]2CC(C(=O)O)=C[C@@H](OC(CC)CC)[C@@H]2NC(C)=O)c1
CC50 at 48 h (in vitro [1]): > 200 µM

CCC(CC)O[C@@H]1C=C(C(=O)O)C[C@H](NCc2ccc(Sc3ccccc3)cc2)[C@H]1NC(C)=O
survival at 10000 µM (Influenza A virus [2]): 100%
half-life at 2 µM (in vitro [3]): > 289 min
remaining at 10 min, 2 µM (in vitro [4]): 102%
t1/2 (Rattus norvegicus [5]): 1.76 h
survival at 39 µM (Influenza A virus [6]): 0%
CL (Rattus norvegicus [7]): 1.41 mL/h/kg
CC50 at 48 h (in vitro [8]): > 250 µM
F (Rattus norvegicus [9]): 100%
survival at 10000 µM (Influenza A virus [10]): 60%
remaining at 1 h, 2 uL (in vitro [11]): 115%
survival at 625 µM (Influenza A virus [12]): 0%
Activity (Mus musculus [13]): Non-Toxic
Cmax (Rattus norvegicus [14]): 407 µg/mL
MRT inf [15]: 4.05 h
remaining at 2 h, 2 µM (in vitro [16]): 91.6%
AUC (Rattus norvegicus [17]): 1464.41 µg·h/L
AUC (Rattus norvegicus [18]): 1558.63 µg·h/L
survival at 625 µM (Influenza A virus [19]): 60%
survival at 39 µM (Influenza A virus [20]): 0%
MRT inf [21]: 2.03 h
Activity (Mus musculus [22]): Non-Toxic
survival at 156 µM (Influenza A virus [23]): 0%
CC50 at 48 h (in vitro [1]): > 200 µM
t1/2 (Rattus norvegicus [24]): 3.82 h
Tmax (Rattus norvegicus [25]): 4.98 min
survival at 156 µM (Influenza A virus [26]): 0%
Vd (Rattus norvegicus [27]): 3.51 L/kg
pEC50 (Influenza A virus [28]): 7.22
half-life at 2 uL (in vitro [29]): > 145 min
AUC(0-t) (in vivo [30]): 1500 ng·h/mL
AUC(0-t) (in vivo [31]): 1460 ng·h/mL
microsomal CLint at 20 min, 2 uL (in vitro [32]): < 9.6 µL/min/mg
pEC50 (Influenza B virus): 4.72
remaining at 1 h, 2 µM (in vitro [33]): 100%
remaining at 0.5 h, 2 µM (in vitro [34]): 100%
bioavailability [35]: 10.3%
pEC50 (Influenza A virus [36]): 4.15
survival at 2500 µM (Influenza A virus [37]): 20%
survival at 2500 µM (Influenza A virus [38]): 80%
remaining at 1 h, 2 uL (in vitro [39]): 101%
Tmax (Rattus norvegicus [40]): 49.8 min

CCC(CC)O[C@@H]1C=C(C(=O)O)C[C@H](NCc2ccc(C(C)(C)C)cc2)[C@H]1NC(C)=O
CC50 at 48 h (in vitro [1]): > 200 µM

CCC(CC)O[C@@H]1C=C(C(=O)O)C[C@H](NCc2cccc(SC3CCCC3)c2)[C@H]1NC(C)=O
CC50 at 48 h (in vitro [1]): > 200 µM

CCC(CC)Oc1ccc(CN[C@H]2CC(C(=O)O)=C[C@@H](OC(CC)CC)[C@@H]2NC(C)=O)cc1
CC50 at 48 h (in vitro [8]): > 250 µM
CC50 at 48 h (in vitro [1]): > 200 µM
pEC50 (Influenza A virus [28]): 4.89
pEC50 (Influenza B virus): < 4.00
pEC50 (Influenza A virus [36]): < 4.00

CCC(CC)O[C@@H]1C=C(C(=O)O)C[C@H](NCc2ccc(SC3CCCC3)cc2)[C@H]1NC(C)=O
CC50 at 48 h (in vitro [1]): > 200 µM

CCC(CC)O[C@@H]1C=C(C(=O)O)C[C@H](NCc2ccc(-c3cc4ccccc4s3)cc2)[C@H]1NC(C)=O
CC50 at 48 h (in vitro [8]): > 250 µM
CC50 at 48 h (in vitro [1]): > 200 µM
pEC50 (Influenza A virus [28]): 5.14
pEC50 (Influenza B virus): < 4.00
pEC50 (Influenza A virus [36]): < 4.00

CCC(CC)O[C@@H]1C=C(C(=O)O)C[C@H](NCc2cccc(OC)c2)[C@H]1NC(C)=O
CC50 at 48 h (in vitro [1]): > 200 µM

CCC(CC)O[C@@H]1C=C(C(=O)O)C[C@H](NCc2ccc(Cc3ccccc3)cc2)[C@H]1NC(C)=O
CC50 at 48 h (in vitro [1]): > 200 µM

CCC(CC)O[C@@H]1C=C(C(=O)O)C[C@H](NCc2ccc(OC)cc2)[C@H]1NC(C)=O
CC50 at 48 h (in vitro [8]): > 250 µM
CC50 at 48 h (in vitro [1]): > 200 µM
pEC50 (Influenza A virus [28]): 5.43
pEC50 (Influenza B virus): < 4.00
pEC50 (Influenza A virus [36]): < 4.00

CCC(CC)O[C@@H]1C=C(C(=O)O)C[C@H](NCc2ccc(-c3ccc4sccc4c3)cc2)[C@H]1NC(C)=O
CC50 at 48 h (in vitro [1]): > 200 µM

O=C(O)Cc1ccccc1Nc1c(Cl)cccc1Cl [DICLOFENAC]
CLH [41]: 88 µL/min/kg
remaining at 1 h, 2 uL (in vitro [11]): 103%
half-life at 2 uL (in vitro [29]): 14.2 min
microsomal CLint at 20 min, 2 uL (in vitro [32]): 97.7 µL/min/mg
remaining at 1 h, 2 uL (in vitro [39]): 5.4%

CCC(CC)O[C@@H]1C=C(C(=O)O)C[C@H](NCc2cccc(-c3ccc(SC)cc3)c2)[C@H]1NC(C)=O
CC50 at 48 h (in vitro [1]): > 200 µM
